Results on 22 compounds are retold here after patent US20230263907A1, “PREPARATION OF SOLID CYCLODEXTRIN COMPLEXES FOR OPHTHALMIC ACTIVE PHARMACEUTICAL INGREDIENT DELIVERY” (OCULIS SA, priority 2020, published 2023).

Usually IC50 stands for the concentration at which inhibition is half-maximal. The term solubility denotes the dissolved amount per volume that the medium holds.

Series [1] deals with T1, VEGFR2 (Homo sapiens, UniProt P35968). Nature of the series: VEGFR2 IC50 values obtained from Selleckchem, Tocris Bioscience and TargetMol. The class given is biochemical. The conditions noted are these: ratio of vendor IC50 values.
T1 sequence (P35968 20-1356, species assumed): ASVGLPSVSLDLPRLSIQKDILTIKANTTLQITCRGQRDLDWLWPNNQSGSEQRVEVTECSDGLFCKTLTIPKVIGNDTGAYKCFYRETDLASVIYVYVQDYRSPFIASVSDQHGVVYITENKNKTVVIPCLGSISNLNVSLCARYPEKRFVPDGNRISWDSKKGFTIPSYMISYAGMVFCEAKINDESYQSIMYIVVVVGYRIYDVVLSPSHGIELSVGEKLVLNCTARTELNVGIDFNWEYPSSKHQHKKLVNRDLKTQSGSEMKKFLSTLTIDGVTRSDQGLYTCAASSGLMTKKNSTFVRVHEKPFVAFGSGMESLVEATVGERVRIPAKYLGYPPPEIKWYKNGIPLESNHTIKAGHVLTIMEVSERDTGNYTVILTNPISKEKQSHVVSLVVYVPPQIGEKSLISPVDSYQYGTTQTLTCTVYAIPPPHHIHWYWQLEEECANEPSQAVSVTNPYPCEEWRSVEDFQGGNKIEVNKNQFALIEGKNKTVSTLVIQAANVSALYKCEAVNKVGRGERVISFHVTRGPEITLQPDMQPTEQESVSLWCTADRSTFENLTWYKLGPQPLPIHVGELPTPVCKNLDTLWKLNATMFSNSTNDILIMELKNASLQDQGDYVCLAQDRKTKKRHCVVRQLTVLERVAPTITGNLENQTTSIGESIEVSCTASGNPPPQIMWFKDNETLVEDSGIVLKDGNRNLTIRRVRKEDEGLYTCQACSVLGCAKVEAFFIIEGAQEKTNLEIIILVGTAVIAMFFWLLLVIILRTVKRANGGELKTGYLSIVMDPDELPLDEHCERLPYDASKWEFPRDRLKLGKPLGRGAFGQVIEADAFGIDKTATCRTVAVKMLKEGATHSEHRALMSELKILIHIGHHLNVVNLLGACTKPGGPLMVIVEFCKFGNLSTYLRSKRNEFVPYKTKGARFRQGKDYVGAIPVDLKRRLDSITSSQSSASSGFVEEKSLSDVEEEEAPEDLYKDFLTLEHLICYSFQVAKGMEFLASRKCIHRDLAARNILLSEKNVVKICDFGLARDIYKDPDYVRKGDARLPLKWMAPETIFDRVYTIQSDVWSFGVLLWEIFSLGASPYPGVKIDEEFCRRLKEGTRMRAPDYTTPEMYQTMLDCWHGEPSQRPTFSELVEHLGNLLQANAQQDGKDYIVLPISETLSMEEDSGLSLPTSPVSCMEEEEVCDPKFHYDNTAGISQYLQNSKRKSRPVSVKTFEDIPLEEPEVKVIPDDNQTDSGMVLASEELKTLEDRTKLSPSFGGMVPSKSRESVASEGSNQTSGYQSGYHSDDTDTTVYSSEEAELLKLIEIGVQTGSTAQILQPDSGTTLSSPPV
For series [2], the target named is EGFR (Homo sapiens, UniProt P00533). The following applies: vendor data; cited from earlier work.
Chain of EGFR (P00533 25-1210, species assumed): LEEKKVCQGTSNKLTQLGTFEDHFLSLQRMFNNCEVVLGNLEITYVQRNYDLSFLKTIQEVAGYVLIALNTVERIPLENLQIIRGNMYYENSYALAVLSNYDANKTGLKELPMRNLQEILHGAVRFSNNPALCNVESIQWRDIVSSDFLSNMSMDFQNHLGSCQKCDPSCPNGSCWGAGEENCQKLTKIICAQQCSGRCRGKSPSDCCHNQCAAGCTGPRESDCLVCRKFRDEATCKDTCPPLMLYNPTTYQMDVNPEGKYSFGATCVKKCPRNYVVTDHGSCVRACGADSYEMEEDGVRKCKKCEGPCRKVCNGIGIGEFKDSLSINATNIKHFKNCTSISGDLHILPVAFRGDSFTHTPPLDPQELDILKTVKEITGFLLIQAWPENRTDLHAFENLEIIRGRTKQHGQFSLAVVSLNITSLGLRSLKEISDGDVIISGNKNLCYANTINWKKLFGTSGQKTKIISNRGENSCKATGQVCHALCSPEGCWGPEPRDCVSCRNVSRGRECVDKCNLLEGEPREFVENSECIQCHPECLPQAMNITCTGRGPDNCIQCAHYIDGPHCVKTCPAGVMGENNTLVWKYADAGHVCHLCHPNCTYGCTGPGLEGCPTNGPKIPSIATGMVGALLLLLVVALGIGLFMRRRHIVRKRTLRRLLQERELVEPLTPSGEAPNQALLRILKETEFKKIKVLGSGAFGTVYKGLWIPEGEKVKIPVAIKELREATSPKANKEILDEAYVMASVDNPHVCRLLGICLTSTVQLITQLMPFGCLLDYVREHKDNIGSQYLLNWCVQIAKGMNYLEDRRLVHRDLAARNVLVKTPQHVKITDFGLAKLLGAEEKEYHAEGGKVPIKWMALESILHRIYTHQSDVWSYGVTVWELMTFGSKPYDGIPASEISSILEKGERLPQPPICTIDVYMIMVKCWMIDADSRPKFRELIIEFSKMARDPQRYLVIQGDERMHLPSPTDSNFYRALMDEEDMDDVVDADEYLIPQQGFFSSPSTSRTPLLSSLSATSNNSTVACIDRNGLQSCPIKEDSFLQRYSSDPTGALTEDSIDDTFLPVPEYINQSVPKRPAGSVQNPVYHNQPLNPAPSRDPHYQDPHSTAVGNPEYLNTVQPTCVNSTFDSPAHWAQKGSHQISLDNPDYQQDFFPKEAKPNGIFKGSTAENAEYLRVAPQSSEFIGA
The conditions of series [3]: 7 days.
The conditions of series [4]: cited from earlier work; for solubility in pure water: 25° C.
A short description of series [5]: Solubility of axitinib free base with various acids and γ-cyclodextrin.
The subject of series [6] is VEGFR2. Nature of the series: PamChip kinase activity profiling in cornea tissue lysates. The arrangement: VEGFR2 inhibition, Cornea: dose or concentration left out as unconfirmed. The conditions noted are these: rabbit cornea lysate.
Series [7] concerns VEGFR2. Nature of the series: PamChip kinase activity profiling in retina tissue lysates. The arrangement: VEGFR2 inhibition, Retina: dose or concentration left out as unconfirmed. The following applies: rabbit retina lysate.
Series [8] is described as follows: Stability of orantinib in an autoclave. In kind it is physicochemical. An excerpt: Each vial was then split up into 2 vials. One vial of each set was autoclaved and all samples analyzed by HPLC.
Series [9] is described as follows: Phase solubility screening of orantinib with gamma-cyclodextrin at pH 6. The class given is physicochemical. The conditions noted are these: 22.5 °C, thermodynamic from solid. How it is done: Phase solubility screening with gamma-cyclodextrin at pH 6. […] The suspensions formed were autoclaved for 15 minutes at 121° C.
Series [10] in a line: Experimental aqueous solubility. The class given is physicochemical. An excerpt: Further improvement of the complexation efficacy is obtained by addition of EDTA and polymers like tyloxapol.
A short description of series [11]: Solid and dissolved drug fraction and particle size of eye drop microsuspensions. The class given is physicochemical.
For series [12], the target named is T1, VEGFR2. The following applies: vendor data; cited from earlier work.
The nature of series [13]: Dissolution test of eye drop formulations in water. In kind it is physicochemical. The conditions noted are these: formulation AF1, 450 times dilution in water, maximum at about 10 minutes. The method, then:
In order to keep high concentrations of dissolved kinase inhibitors in the aqueous tear fluid the dissolution of the kinase inhibitor must proceed very quickly upon media dilution. The test formulation was above DF3 and the reference formulation was AF1 comprising acrizanib (Table 4 below). A dissolution test was performed by direct adding of a formulation aliquot into defined volume of water under constant stirring speed. The formulation/water ratio (final dilution) selection was based on the quantification limit of the used HPLC method and on the acrizanib solubility. The final dilution of 450 times was selected. At certain time after adding the formulation to water a sample of about 1 ml was taken from a stirring media, filtered through 0.45 µm filter and transferred to an HPLC vial for analysis.

The conditions of series [14]: cited from earlier work.
The target of series [15] is VEGFR2 (C-terminal fragment, amino acids D807-V1356) (Homo sapiens, UniProt P35968).
Chain of VEGFR2 (C-terminal fragment, amino acids D807-V1356) (P35968 807-1356): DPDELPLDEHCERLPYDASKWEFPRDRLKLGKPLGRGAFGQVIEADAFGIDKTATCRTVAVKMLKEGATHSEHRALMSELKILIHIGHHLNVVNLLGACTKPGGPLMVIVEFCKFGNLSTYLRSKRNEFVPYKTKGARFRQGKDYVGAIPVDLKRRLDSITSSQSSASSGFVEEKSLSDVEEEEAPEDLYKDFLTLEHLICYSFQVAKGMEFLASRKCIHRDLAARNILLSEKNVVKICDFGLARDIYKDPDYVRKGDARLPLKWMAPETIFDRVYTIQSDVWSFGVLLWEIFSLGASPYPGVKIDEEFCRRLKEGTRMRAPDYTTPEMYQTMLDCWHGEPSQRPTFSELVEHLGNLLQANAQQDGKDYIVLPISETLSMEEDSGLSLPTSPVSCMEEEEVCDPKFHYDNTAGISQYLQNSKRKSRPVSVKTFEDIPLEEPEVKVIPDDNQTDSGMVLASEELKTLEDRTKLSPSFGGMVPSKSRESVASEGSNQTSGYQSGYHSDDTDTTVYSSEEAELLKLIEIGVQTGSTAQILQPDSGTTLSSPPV
For series [16], the target named is T2, EGFR (C-terminal fragment, amino acids H672-A1210) (Homo sapiens, UniProt P00533).
T2 construct: EGFR (C-terminal fragment, amino acids H672-A1210); purchased Proqinase (Freiburg Germany)
T2 sequence (P00533 672-1210): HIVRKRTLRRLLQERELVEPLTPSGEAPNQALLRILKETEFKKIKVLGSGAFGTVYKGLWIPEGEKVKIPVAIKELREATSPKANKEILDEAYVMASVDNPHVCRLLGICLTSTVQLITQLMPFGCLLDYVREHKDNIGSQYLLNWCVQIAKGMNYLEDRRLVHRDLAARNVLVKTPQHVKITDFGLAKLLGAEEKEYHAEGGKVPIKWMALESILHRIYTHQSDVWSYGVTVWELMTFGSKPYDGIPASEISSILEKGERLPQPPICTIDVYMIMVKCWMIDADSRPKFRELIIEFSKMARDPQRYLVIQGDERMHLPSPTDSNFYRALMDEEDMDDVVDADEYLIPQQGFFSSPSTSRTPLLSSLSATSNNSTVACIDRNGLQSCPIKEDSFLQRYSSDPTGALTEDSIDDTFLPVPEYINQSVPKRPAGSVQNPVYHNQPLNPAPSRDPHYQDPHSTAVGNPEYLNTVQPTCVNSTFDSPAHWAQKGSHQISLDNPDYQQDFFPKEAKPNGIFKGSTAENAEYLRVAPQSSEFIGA
Nature of the series: PamChip tyrosine kinase peptide array assay, recombinant EGFR. The class given is biochemical.

[17] abbreviates: γ-cyclodextrin eye drop formulations.

In brackets after ≈: the same amount, converted by molar mass. Marks after values point to notes of the source that are not given here.

Take `COc1cc2c(Oc3ccc4[nH]c(C)cc4c3F)ccnc2cc1OCC1(N)CC1` [Anlotinib]: in series [1], the EGFR/VEGFR2 ratio was 10,000. In addition, in series [2], the IC50 is 2 µM.
Consider `Cc1ccc(Nc2nccc(N(C)c3ccc4c(C)n(C)nc4c3)n2)cc1S(N)(=O)=O` [Pazopanib], for which the “CE (complexation efficacy)” value in series [3] was found to be 0.00002.
With `OC[C@H]1O[C@@H]2O[C@H]3[C@H](O)[C@@H](O)[C@@H](O[C@H]4[C@H](O)[C@@H](O)[C@@H](O[C@H]5[C@H](O)[C@@H](O)[C@@H](O[C@H]6[C@H](O)[C@@H](O)[C@@H](O[C@H]7[C@H](O)[C@@H](O)[C@@H](O[C@H]8[C@H](O)[C@@H](O)[C@@H](O[C@H]9[C@H](O)[C@@H](O)[C@@H](O[C@H]1[C@H](O)[C@H]2O)O[C@@H]9CO)O[C@@H]8CO)O[C@@H]7CO)O[C@@H]6CO)O[C@@H]5CO)O[C@@H]4CO)O[C@@H]3CO` [γ-cyclodextrin], the “solubility in pure water” value in series [4] was 249200 ± 200 µg/mL (≈ 192000 µM). In addition, the “solubility in aqueous 3% (w/v) γ-cyclodextrin suspension saturated with hydrocortisone” value in [4] is 13000 µg/mL. Moreover, the “solubility in pure water at room temperature” value in series [4] is “about 250 mg/ml”. Also, the γCD in solution in series [5] (10 mg/ml Axi + 50 mg/ml γCD + Acetic acid (1:1 molar), pH 3.5) came out at 24 mg/mL; in [5] (10 mg/ml Axi + 50 mg/ml γCD + Ascorbic acid (1:1 molar), pH 3.1), 27 mg/mL; in series [5] (10 mg/ml Axi + 50 mg/ml γCD + Hydrochloric acid (1:1 molar), pH 3.2) it was 21 mg/mL; in [5] (10 mg/ml Axi + 50 mg/ml γCD + Lactic acid (1:1 molar), pH 2.8), 24 mg/mL; in series [5] (10 mg/ml Axi + 50 mg/ml γCD + Maleic acid (1:1 molar), pH 2.3) it was 25 mg/mL; in [5] (10 mg/ml Axi + 50 mg/ml γCD + Malic acid (1:1 molar), pH 3.0) it was 24 mg/mL. For the same compound, the γCD in solution in series [5] (10 mg/ml Axi + 50 mg/ml γCD + Tartaric acid (1:1 molar), pH 2.7) turned out to be 22 mg/mL; in [5] (10 mg/ml Axi + 50 mg/ml γCD, no acid, pH 9.1), 22 mg/mL.
Take `CNC(=O)c1c(C)oc2cc(Oc3ncnc4cc(OC)c(OC)cc34)ccc12` [Fruquintinib]: the EGFR/VEGFR2 ratio in series [1] is recorded as 857. Moreover, the IC50 in series [2] was 30 µM.
For the compound `COC(=O)c1ccc2c(c1)NC(=O)/C2=C(\Nc1ccc(N(C)C(=O)CN2CCN(C)CC2)cc1)c1ccccc1` [Nintedanib], in [6], the “VEGFR2 inhibition, Cornea” value is recorded as 95.92% and the “VEGFR2 potency ranking in cornea” value is recorded as “most potent VEGFR2 inhibitor”. Moreover, in series [7], the “VEGFR2 inhibition, Retina” value is on record as 94.33% and the “VEGFR2 potency ranking in retina” value is “most potent VEGFR2 inhibitor”.
Turning to `OC[C@H]1O[C@@H]2O[C@H]3[C@H](O)[C@@H](O)[C@@H](O[C@H]4[C@H](O)[C@@H](O)[C@@H](O[C@H]5[C@H](O)[C@@H](O)[C@@H](O[C@H]6[C@H](O)[C@@H](O)[C@@H](O[C@H]7[C@H](O)[C@@H](O)[C@@H](O[C@H]1[C@H](O)[C@H]2O)O[C@@H]7CO)O[C@@H]6CO)O[C@@H]5CO)O[C@@H]4CO)O[C@@H]3CO` [α-cyclodextrin], in [4], the “solubility in pure water” value is 129500 ± 700 µg/mL (≈ 133000 µM).
For the compound `Cc1[nH]c(/C=C2\C(=O)Nc3ccccc32)c(C)c1CCC(=O)O` [Orantinib], the concentration before autoclave in series [8] (sample 1-29, MQ water with NaOH, pH 7.4, filtered 0.45 micrometer) is 60 µq/ml; in [8] (sample 2-29, MQ water with NaOH, pH 7.6, filtered 0.45 micrometer) it was 182 µq/ml; in series [8] (sample 3-29, MQ water with NaOH, pH 7.8, filtered 0.45 micrometer), 321 µq/ml. Besides, the concentration after autoclave was determined as 64 µg/mL in series [8] (sample 1-29, pH 7.4); 176 µg/mL in [8] (sample 2-29, pH 7.6); 316 µg/mL in series [8] (sample 3-29, pH 7.8). Moreover, the solubility at 4 h in series [9] (water with 0 % (w/v) γ-cyclodextrin, water, 0 % (w/v) γCD, pH 6.3) turned out to be 4 µg/mL (≈ 12.9 µM); in [9] (water with 5 % (w/v) γ-cyclodextrin, aqueous with cosolvent or surfactant or cyclodextrin, 5 % (w/v) γCD, pH 6.1), 14 µg/mL (≈ 45.1 µM); in [9] (water with 10 % (w/v) γ-cyclodextrin, aqueous with cosolvent or surfactant or cyclodextrin, 10 % (w/v) γCD, pH 6.2), 17 µg/mL (≈ 54.8 µM); in series [9] (water with 15 % (w/v) γ-cyclodextrin, aqueous with cosolvent or surfactant or cyclodextrin, 15 % (w/v) γCD, pH 6.0), 12 µg/mL (≈ 38.7 µM).
On to `CNC(=O)c1cc(Oc2ccc(NC(=O)Nc3ccc(Cl)c(C(F)(F)F)c3)c(F)c2)ccn1` [Regorafenib], for which, in series [3], the “CE (complexation efficacy)” value is 0.00002. Also, in [2], the IC50 was 1 µM.
With `O=C(Nc1cc(Oc2cc(F)c(NC(=O)C3(C(=O)Nc4ccc(F)cc4)CC3)cc2F)ccn1)C1CC1` [Altiratinib], in series [2], the IC50 was 3.3 µM.
On to `Cc1cc(F)c(Nc2ncnc3cc(OCc4ccccc4)ccc23)cc1O` [ZM 323881, 5-((7-Benzyloxyquinazolin-4-yl)amino)-4-fluoro-2-methylphenol], for which the EGFR/VEGFR2 ratio in [1] is 25,000. Besides, the IC50 in [2] was 50 µM.
As for `CC(O)C(=O)O.CC(O)C(=O)O.CN1CCN(c2ccc3nc(-c4c(N)c5c(F)cccc5[nH]c4=O)[nH]c3c2)CC1` [Dovitinib dilactate], in series [10] (pH 6.5), the S in water was 0.3 ^b mg/mL. In series [11] (lactate salt with EDTA and surface active polymers, versus free base), the “increase of drug that could be dissolved and suspended” value is given as around 10 fold.
With `CC1(C)CNc2cc(NC(=O)c3cccnc3NCc3ccncc3)ccc21` [Motesanib], in [3], the “CE (complexation efficacy)” value was determined as 0.0052.
Turning to `COc1cc2nccc(Oc3ccc(NC(=O)Nc4ccc(F)cc4F)c(F)c3)c2cc1OC` [Ki8751], the EGFR/VEGFR2 ratio in [1] stood at 2500. For the same compound, the IC50 was 0.004 µM in series [12] and 10 µM in series [2].
As to `CNCc1cc(Oc2ccc3c(ccn3C(=O)Nc3cc(C(F)(F)F)n(C)n3)c2)ncn1` [Acrizanib], the “fraction of drug dissolved, maximum” value in [13] was “about 7.5%”. For the same compound, the IC50 in series [2] is 1 µM.
For `O=C(O)CC(O)C(=O)O` (centres unmarked) [Malic], in [14], the “pKa (first or only value)” value is reported as 3.51 and the “pKa (second value)” value is 5.03.
Turning to `COc1cc2c(Oc3ccc4[nH]c(C)cc4c3F)ncnc2cc1OCCCN1CCCC1` [Cediranib], in series [11] (setting [17]), the “diameter of dissolved drug/γ-cyclodextrin complex nanoparticles” value is reported as “below 200 nm”; the “diameter of solid drug/γ-cyclodextrin complex microparticles” value is reported as “less than 10 µm”; the “fraction of drug dissolved (free drug, complexes or complex nanoparticles)” value was “about 13%”. Besides, the “fraction of drug in solid drug/γ-cyclodextrin complex microparticles” value in [11] (γ-cyclodextrin eye drop formulations, from concentration before and after filtration) is listed as “About 87%”. For the same compound, the “CE (complexation efficacy)” value in series [3] was 0.0578.
For `COCCNCc1ccc(-c2cc3nccc(Oc4ccc(NC(=O)C5(C(=O)Nc6ccc(F)cc6)CC5)cc4F)c3s2)nc1` [Sitravatinib], in series [2], the IC50 was 5 µM.
For `O=C(Nc1cccc(C(F)(F)F)c1)c1cccc2cc(Oc3cc(CO)ncn3)ccc12` [BFH772], the EGFR/VEGFR2 ratio in series [1] came out at 3333. Also, the IC50 in [2] was 10 µM.
In the case of Cediranib maleate, in [10], the “solubility compared with the free base” value is reported as “significant greater solubility than the free base”.
Turning to `CNC(=O)c1ccccc1Sc1ccc2c(/C=C/c3ccccn3)n[nH]c2c1` [Axitinib], the “CE (complexation efficacy)” value in series [3] amounted to 0.0002. In addition, the “VEGFR inhibition in the recombinant assays” value in [15] was “potent inhibitors for VEGFR”.
In the case of `O=C(Nc1ccc(OC(F)(F)F)cc1)c1sccc1NCc1ccnc2ccccc12` [OSI-930], the EGFR/VEGFR2 ratio in [1] is listed as 1000. Also, the IC50 in series [2] is 10 µM.
Regarding `COc1cc2nccc(Oc3ccc(NC(=O)C4(C(=O)Nc5ccc(F)cc5)CC4)cc3)c2cc1OC` [Cabozantinib], in series [16], the “EGFR inhibition in the recombinant assays” value is on record as “do not inhibit EGFR”. The “VEGFR2 inhibition, Cornea” value in series [6] is given as 90.52%. Moreover, the “VEGFR2 inhibition, Retina” value in series [7] is 74.82%.
